Assay results from the Kinase Knowledgebase extract (Sharma et al. 2016).

Target: CDK2 (human) (UniProt P24941)
Assay: Enzyme Assay

IC50 [nM]	SMILES
< 500	Cc1[nH]c(=O)c(-c2csc(-c3ccnc(NCc4ccccn4)c3)n2)cc1C(=O)NCc1ccccn1
< 500	CCOC(=O)c1cc(-c2csc(-c3ccnc(NCc4cccnc4)c3)n2)c(=O)[nH]c1C
< 500	CCOC(=O)c1cc(-c2csc(-c3ccnc(NCCc4cccs4)c3)n2)c(=O)[nH]c1C
< 500	CCOC(=O)c1cc(-c2csc(-c3ccnc(NCc4ccco4)c3)n2)c(=O)[nH]c1C
< 500	CCOC(=O)c1cc(-c2csc(CS(=O)(=O)Cc3ccc(F)cc3)n2)c(=O)[nH]c1C
< 500	CCOC(=O)c1cc(-c2csc(CS(=O)(=O)c3ccccc3)n2)c(=O)[nH]c1CC
< 500	CCOC(=O)c1cc(-c2csc(-c3ccncc3)n2)c(=O)[nH]c1CC
< 500	CCOC(=O)c1cc(-c2csc(CS(=O)(=O)c3ccccc3)n2)c(=O)[nH]c1C(C)C
< 500	Cc1[nH]c(=O)c(-c2csc(-c3ccnc(NCC4CC4)c3)n2)cc1C(=O)NCC1CC1
< 500	CC(C)c1ccc(-c2csc(-c3ccncc3)n2)c(=O)[nH]1
< 500	CCOC(=O)c1cc(-c2csc(-c3ccncc3)n2)c(=O)[nH]c1C(C)C
< 500	CCOC(=O)c1cc(-c2csc(CS(=O)(=O)c3ccccc3)n2)c(=O)[nH]c1C1CC1
< 500	CCOC(=O)c1cc(-c2csc(-c3ccnc(NCCNC(C)C)c3)n2)c(=O)[nH]c1C
< 500	CCCc1[nH]c(=O)c(-c2csc(-c3ccncc3)n2)cc1C(=O)OCC
< 500	CCOC(=O)c1cc(-c2csc(-c3ccnc(NC)c3)n2)c(=O)[nH]c1C(C)C
< 500	CCOC(=O)c1cc(-c2csc(-c3ccnc(NCC4CC4)c3)n2)c(=O)[nH]c1C
< 500	CCOC(=O)c1cc(-c2csc(-c3ccncc3)n2)c(=O)[nH]c1C
< 500	CCN(CC)CCCOC(=O)c1cc(-c2csc(-c3ccncc3)n2)c(=O)[nH]c1C(C)C
< 500	CCOC(=O)c1cc(-c2csc(CS(=O)(=O)c3cccs3)n2)c(=O)[nH]c1C(C)C
< 500	CCOC(=O)c1cc(-c2csc(CS(=O)(=O)c3ccccn3)n2)c(=O)[nH]c1C
< 500	CCOC(=O)c1cc(-c2csc(-c3ccnc(NCc4ccccc4)c3)n2)c(=O)[nH]c1C
< 500	CCc1[nH]c(=O)c(-c2csc(-c3ccncc3)n2)cc1C(=O)OCCN1CCCC1
< 500	CCOC(=O)c1cc(-c2csc(C(C)(C)S(=O)(=O)c3ccccc3)n2)c(=O)[nH]c1C
< 500	Cc1[nH]c(=O)c(-c2csc(-c3ccncc3)n2)cc1C(=O)OC(C)(C)C
< 500	CCOC(=O)c1cc(-c2csc(CS(=O)(=O)c3ccccc3)n2)c(=O)[nH]c1C

IC50 [nM]	SMILES
< 500	CCOC(=O)c1cc(-c2csc(-c3ccnc(NCCN(CC)CC)c3)n2)c(=O)[nH]c1C
< 500	CCOC(=O)c1cc(-c2csc(-c3ccnc(NCc4ccccn4)c3)n2)c(=O)[nH]c1C
< 500	CCOC(=O)c1cc(-c2csc(-c3ccncc3)n2)c(=O)[nH]c1COCc1ccccc1
< 500	CCCc1[nH]c(=O)c(-c2csc(CS(=O)(=O)c3cccs3)n2)cc1C(=O)OCC
< 500	CCOC(=O)c1cc(-c2csc(-c3ccnc(NCCNC(C)=O)c3)n2)c(=O)[nH]c1C
< 500	CCOC(=O)c1cc(-c2csc(-c3ccnc(CC)c3)n2)c(=O)[nH]c1C
< 500	CCOC(=O)c1cc(-c2csc(CSc3ccccc3)n2)c(=O)[nH]c1C
< 500	CCOC(=O)c1cc(-c2csc(-c3c(Cl)cncc3Cl)n2)c(=O)[nH]c1C
< 500	CCOC(=O)c1cc(-c2csc(CS(=O)(=O)c3cccs3)n2)c(=O)[nH]c1CC
< 500	CCCc1[nH]c(=O)c(-c2csc(CS(=O)(=O)c3ccccc3)n2)cc1C(=O)OCC
< 500	CCOC(=O)c1cc(-c2csc(-c3ccnc(NC)c3)n2)c(=O)[nH]c1C
< 500	CCOC(=O)c1cc(-c2csc(-c3ccnc(N)c3)n2)c(=O)[nH]c1C
< 500	CCOC(=O)c1cc(-c2csc(-c3ccnc(NCC4CCCC4)c3)n2)c(=O)[nH]c1C
< 500	CCOC(=O)c1cc(-c2csc(CS(=O)(=O)c3ccccc3)n2)c(=O)[nH]c1COCc1ccccc1
< 500	CCCCNc1cc(-c2nc(-c3cc(C(=O)OCC)c(C)[nH]c3=O)cs2)ccn1
< 500	CCOC(=O)c1cc(-c2csc(CS(=O)(=O)c3ccc(Cl)cc3)n2)c(=O)[nH]c1C
< 500	Cc1[nH]c(=O)c(-c2csc(-c3ccncc3)n2)cc1Br
< 500	CCOC(=O)c1cc(-c2csc(-c3ccnc(NCC(C)C)c3)n2)c(=O)[nH]c1C
< 500	CCOC(=O)c1cc(-c2csc(-c3ccnc(Cl)c3)n2)c(=O)[nH]c1C
< 500	CCOC(=O)c1cc(-c2csc(CS(=O)(=O)c3cccs3)n2)c(=O)[nH]c1C
< 500	CCc1[nH]c(=O)c(-c2csc(-c3ccncc3)n2)cc1C(=O)OCCCN(CC)CC
< 500	CCOC(=O)c1cc(-c2csc(-c3ccnc(NCC(N)=O)c3)n2)c(=O)[nH]c1C
< 500	CCOC(=O)c1cc(-c2csc(NC)n2)c(=O)[nH]c1C
< 500	CCc1ccc(-c2csc(-c3ccncc3)n2)c(=O)[nH]1
